Data on 21 compounds can be found in ChEMBL document CHEMBL1795229, “Vasorelaxant effects of macrocyclic bis(bibenzyls) from liverworts” (Bioorg Med Chem, 2011).

Each structure is given as a SMILES string. Activity calls are given as the source filed them. The calls are words filed in the database; no cut-off is given here. Where only a bound is given, the exact number is not on record here.

The subject of test [1] is Aorta. Briefly: Vasorelaxant activity in Wistar rat endothelium-intact aortic rings assessed as inhibition of phenylephrine-induced contractions at 30 uM after 10 to 30 mins. Type of test: functional, tissue-based.
In test [2] the test system is Aorta. Briefly: Vasorelaxant activity in Wistar rat endothelium-intact aortic rings assessed as inhibition of phenylephrine-induced contractions after 10 to 30 mins. Type of test: functional, tissue-based.
The subject of test [3] is Aorta. Briefly: Vasorelaxant activity in Wistar rat endothelium-intact aortic rings assessed as inhibition of phenylephrine-induced contractions at 10 to 100 uM. Type of test: functional, tissue-based. Particulars: TDE = time-dependent effect.
Test [4] deals with Aorta. Briefly: Vasorelaxant activity in Wistar rat endothelium-denuded aortic rings assessed as inhibition of calcium chloride-induced contractions in calcium-free potassium-rich medium at 30 uM. Type of test: functional, tissue-based.
In test [5] the test system is Aorta. Briefly: Vasorelaxant activity in Wistar rat endothelium-denuded aortic rings assessed as inhibition of phenylephrine-induced contractions in calcium-free medium at 30 uM pretreated with nicardipine. Type of test: functional, tissue-based.
For test [6], the system named is Aorta. Briefly: Vasorelaxant activity in Wistar rat endothelium-intact aortic rings assessed as inhibition of phenylephrine-induced contractions after 10 to 60 mins. Type of test: functional, tissue-based.
Test [7] relates to Aorta. Briefly: Vasorelaxant activity in Wistar rat endothelium-denuded aortic rings assessed as inhibition of phenylephrine-induced contractions at 10 to 100 uM. Type of test: functional, tissue-based. Particulars: TDE = time-dependent effect.
In test [8] the test system is Aorta. Briefly: Vasorelaxant activity in Wistar rat endothelium-intact aortic rings assessed as inhibition of phenylephrine-induced contractions at 10 to 100 uM after 10 to 60 mins. Type of test: functional.
Test [9] relates to Aorta. As to the kind of experiment: Vasorelaxant activity in Wistar rat endothelium-denuded aortic rings assessed as inhibition of phenylephrine-induced contractions presence of 1 mM of potassium channel inhibitor TEA. Type of test: functional, tissue-based.
The subject of test [10] is Aorta. As to the kind of experiment: Vasorelaxant activity in Wistar rat endothelium-denuded aortic rings assessed as inhibition of phenylephrine-induced contractions at 10 to 100 uM after 10 to 60 mins. Type of test: functional.
The test system of test [11] is Aorta. Briefly: Vasorelaxant activity in Wistar rat aortic rings assessed as inhibition of phenylephrine-induced contractions at 10 to 100 uM after 10 to 60 mins in presence of 100 uM of NO synthase inhibitor L-NMMA. Type of test: functional, tissue-based.

As to `COC1Cc2cccc(c2)Oc2c(O)cccc2CCc2ccc(cc2)Oc2cc1cc(O)c2O` (configuration not stated), the inhibition entry in the test with Aorta [1] was “Active”.

`COc1cc(CCc2cccc(Oc3c(O)cccc3CCc3ccc(O)cc3)c2)cc(O)c1O`: the inhibition result with Aorta [1] is “Active”.

With `COc1cc2cc(c1OC)Oc1ccc(cc1)CCc1ccc(OC)c(OC)c1Oc1cccc(c1)CC2`, the inhibition result in the test with Aorta [1] was “Active”.

`COc1ccc2c(c1)CCc1ccc(OC)c(c1)-c1cc(ccc1OC)CCc1ccc-2c(OC)c1`: the inhibition result in the test on Aorta [1] was “Active”.

With `COc1cccc(CCc2ccc(O)c(Oc3ccc(CCc4cccc(O)c4)cc3)c2)c1`, the inhibition entry in the test with Aorta [1] is “Active”.

Turning to `COc1cccc2c1Oc1cccc(c1)CCc1cc(OC)c(OC)c(c1)Oc1ccc(cc1)CC2`, the inhibition entry in the test with Aorta [1] was “Active”.

Consider `Oc1cc2cc(c1O)Oc1ccc(cc1)CCc1ccc(O)c(O)c1Oc1cccc(c1)CC2`, for which, in the test with Aorta [1], the inhibition result is “Active”.

Take `Oc1cc2cc(c1O)Oc1ccc(cc1)CCc1cccc(O)c1Oc1cccc(c1)CC2`: the inhibition result with Aorta [1] is “Active”.

As for `Oc1ccc(CCc2cccc(O)c2O)cc1Oc1ccc(CCc2cccc(O)c2O)cc1`, the inhibition result in the test with Aorta [1] is “Active”.

Take `Oc1ccc2c(c1)/C=C/c1ccc(O)c(c1)Oc1ccc(cc1)CCc1cccc(c1)O2`: the inhibition result in the test with Aorta [1] is “Active”.

For `Oc1ccc2c(c1)CCc1ccc(O)c(c1)-c1cc(ccc1O)/C=C\c1cccc(c1)O2`, the inhibition result with Aorta [1] is “Active”.

For `Oc1ccc2c(c1)CCc1ccc(cc1)Oc1cc(cc(-c3cc4cc(c3O)Oc3ccc(cc3)CCc3cc(O)ccc3-c3ccc(cc3O)CC4)c1O)CCc1ccc-2c(O)c1`, the inhibition entry in the test with Aorta [1] is “Active”.

As for `Oc1ccc2cc1Oc1ccc(cc1)CCc1cccc(c1)Oc1c(O)cccc1CC2`, the inhibition result in the test with Aorta [1] was “Active”.

As to `CC(=O)OCC[N+](C)(C)C` [ACETYLCHOLINE], in the test with Aorta [2], the IC50 (usually the concentration needed to halve the response being measured) is 1000 nM.

Regarding `Oc1ccc2cc1-c1cc(ccc1O)CCc1c(ccc(O)c1O)Oc1cccc(c1)/C=C\2` [ISOPLAGIOCHIN B], the inhibition result is “tde” with Aorta [3], “Dose-dependent effect” in the test with Aorta [6] and “tde” in the test on Aorta [7]. In addition, the inhibition entry in the test on Aorta [1] and in the test with Aorta [5] was “Active” each time. Further, the inhibition result with Aorta [4] and in the test with Aorta [9] was “inactive” in each case. The “inhibition (INH)” value is above 60% in the test with Aorta [8] and above 80% in the test on Aorta [10].

Take `Oc1ccc2c(c1)CCc1ccc(O)c(c1)-c1cc(ccc1O)CCc1ccc-2c(O)c1` [ISOPLAGIOCHIN D]: the inhibition result in the test with Aorta [3] was “tde”; with Aorta [6], “Dose-dependent effect”; in the test with Aorta [7], “tde”. Further, the inhibition entry with Aorta [1], in the test with Aorta [4], in the test on Aorta [5] and with Aorta [9] was “Active” each time. For the same compound, the “inhibition (INH)” value in the test with Aorta [8] was above 60%; in the test on Aorta [10] it was above 80%.

Consider `Oc1cccc(CCc2ccc(Oc3cc(CCc4cccc(O)c4)cc(O)c3O)cc2)c1` [PERROTETTIN F], for which the inhibition entry was “tde” in the test on Aorta [3], “Dose-dependent effect” in the test with Aorta [6] and “tde” with Aorta [7]. Moreover, the inhibition result in the test on Aorta [1], with Aorta [4], in the test on Aorta [5] and in the test with Aorta [9] was “Active” throughout. Further, the “inhibition (INH)” value is above 60% in the test with Aorta [8] and above 80% in the test on Aorta [10].

Turning to `COc1cc2c(cc1O)-c1ccc(O)cc1CCc1cc(O)c(O)c(c1)Oc1ccc(cc1)CC2` [PLAGIOCHIN A], the inhibition result in the test with Aorta [3] is “tde”; in the test with Aorta [6], “Dose-dependent effect”. Further, the inhibition result with Aorta [1] is “Active”. Further, the inhibition entry in the test on Aorta [11] and in the test on Aorta [10] was “inactive” in each case. The “inhibition (INH)” value in the test with Aorta [8] is above 60%.

`Oc1ccc2c(c1)CCc1ccc(cc1)Oc1cc(ccc1O)CCc1ccc-2c(O)c1` [RICCARDI C]: the inhibition entry with Aorta [3] is “tde”; in the test on Aorta [6], “Dose-dependent effect”. The inhibition result with Aorta [1] was “Active”. Further, the “inhibition (INH)” value in the test with Aorta [8] is above 60%. In addition, in the test on Aorta [10], the inhibition entry is “inactive”.

On to `COc1ccc2cc1Oc1ccc(cc1)CCc1cc(O)ccc1-c1ccc(cc1O)CC2` [RICCARDI F], for which the inhibition entry in the test on Aorta [3] is “tde”; in the test with Aorta [6], “Dose-dependent effect”. The inhibition entry in the test with Aorta [1] was “Active”. For the same compound, in the test with Aorta [8], the “inhibition (INH)” value is on record as above 60%. Also, in the test with Aorta [10], the inhibition entry was “inactive”.

Turning to `COc1ccc2c(c1)CCc1ccc(cc1)Oc1cc(ccc1O)CCc1ccc-2c(O)c1` [RICCARDIN A], the figures for the inhibition result in the test on Aorta [3] and with Aorta [6] were “tde” and “Dose-dependent effect”, respectively. For the same compound, in the test with Aorta [1], the inhibition result was “Active”. For the same compound, in the test on Aorta [8], the “inhibition (INH)” value is on record as above 60%. Besides, the inhibition result in the test on Aorta [10] is “inactive”.
